Data from PubChem BioAssay AID330 (DTP/NCI, 2004).
Where “and” joins values, the source holds several entries; their conditions need not be identical. Equal entries are not always repeated. Toxic doses and inconclusive results are not listed. Square brackets hold non-standard residues; d marks the D form. Peptide text beside a SMILES is read from it. * marks the point of attachment. Cbz = O=C(OCc1ccccc1)*; Dha = C=C(N)C(=O)O

System: P388 leukemia ip, CD2F1 mice, survival T/C
Experiment: NCI In Vivo Anticancer Drug Screen. Data for tumor model P388 Leukemia (intraperitoneal) in CD2F1 (CDF1) mice
Conditions: endpoint: median survival time, higher = longer survival
Procedure, shortened: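 Mice carrying the transplanted tumor received test compound or vehicle. Survival was recorded in each group, and the value is the treated-group measurement divided by that of the vehicle-treated control group.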

[1] = dose: 25.0 mg/kg/injection, schedule: Q01DX009 (ip), vehicle: Klucel (hydroxypropylcellulose) (HPC)
[2] = dose: 50.0 mg/kg/injection, schedule: Q01DX009 (ip), vehicle: Klucel (hydroxypropylcellulose) (HPC)
[3] = dose: 100.0 mg/kg/injection, schedule: Q01DX009 (ip), vehicle: Klucel (hydroxypropylcellulose) (HPC)
[4] = dose: 200.0 mg/kg/injection, schedule: Q01DX009 (ip), vehicle: Klucel (hydroxypropylcellulose) (HPC)
[5] = dose: 6.25 mg/kg/injection, schedule: Q01DX009 (ip), vehicle: Klucel (hydroxypropylcellulose) (HPC)
[6] = dose: 12.5 mg/kg/injection, schedule: Q01DX009 (ip), vehicle: Klucel (hydroxypropylcellulose) (HPC)
[7] = dose: 50.0 mg/kg/injection, schedule: Q01DX009 (ip), vehicle: saline
[8] = dose: 100.0 mg/kg/injection, schedule: Q01DX009 (ip), vehicle: saline
[9] = dose: 50.0 mg/kg/injection, schedule: Q01DX005 (ip), vehicle: saline with Tween-80
[10] = dose: 100.0 mg/kg/injection, schedule: Q01DX005 (ip), vehicle: saline with Tween-80
[11] = dose: 200.0 mg/kg/injection, schedule: Q01DX005 (ip), vehicle: saline with Tween-80
[12] = dose: 100.0 mg/kg/injection, schedule: Q04DX003 (ip), vehicle: saline with Tween-80
[13] = dose: 200.0 mg/kg/injection, schedule: Q04DX003 (ip), vehicle: saline with Tween-80
[14] = dose: 400.0 mg/kg/injection, schedule: Q04DX003 (ip), vehicle: saline with Tween-80
[15] = dose: 50.0 mg/kg/injection, schedule: Q01DX009 (ip), vehicle: saline with Tween-80
[16] = dose: 100.0 mg/kg/injection, schedule: Q01DX009 (ip), vehicle: saline with Tween-80
[17] = dose: 200.0 mg/kg/injection, schedule: Q01DX009 (ip), vehicle: saline with Tween-80
[18] = dose: 50.0 mg/kg/injection, schedule: Q01DX005 (ip), vehicle: Klucel (hydroxypropylcellulose) (HPC)
[19] = dose: 100.0 mg/kg/injection, schedule: Q01DX005 (ip), vehicle: Klucel (hydroxypropylcellulose) (HPC)
[20] = dose: 200.0 mg/kg/injection, schedule: Q01DX005 (ip), vehicle: Klucel (hydroxypropylcellulose) (HPC)

S=C(Nc1ccc(Cl)c(Cl)c1)N1c2ccccc2-n2cccc2C1c1cccnc1 (stereo not drawn)
T/C [1]: 115 % of control
T/C [2]: 113 % of control
T/C [3]: 113 % of control
T/C [4]: 121 % of control

Nc1ccc(Nc2ccncc2)cc1
T/C [5]: 100 % of control
T/C [6]: 95 % of control
T/C [1]: 100 % of control

C=C(NC(=O)C(C)NC(=O)OCc1ccccc1)C(=O)N1CCCC1C(=O)NC(C)C(=O)NC (stereo not drawn) (Cbz-A[Dha]PA-NHMe; configuration not given here)
T/C (dose: 25.0 mg/kg/injection, schedule: Q01DX009 (ip), vehicle: saline): 111 % of control
T/C [7]: 100 % of control
T/C [8]: 96 % of control

Cc1cc2oc3c(ccc(=O)n3C)c(=O)c2c(C)c1Cl
T/C [9]: 104 % of control
T/C [10]: 113 % of control
T/C [11]: 88 % of control

CCOC1(NC(=O)N(C)C)CC1
T/C (dose: 50.0 mg/kg/injection, schedule: Q04DX003 (ip), vehicle: saline): 103 % of control
T/C (dose: 100.0 mg/kg/injection, schedule: Q04DX003 (ip), vehicle: saline): 102 % of control
T/C (dose: 200.0 mg/kg/injection, schedule: Q04DX003 (ip), vehicle: saline): 102 % of control

COc1cccc(/C=N\NC(=O)C(C)SC(C)C(=O)N/N=C/c2cccc(OC)c2)c1 (stereo not drawn)
T/C [12]: 104 % of control
T/C [13]: 90 % of control
T/C [14]: 100 % of control

CCOC(=O)NN(C(=O)OCC)C(C(C)=O)c1ccccc1 (stereo not drawn)
T/C (dose: 60.0 mg/kg/injection, schedule: Q01DX005 (ip), vehicle: Klucel (hydroxypropylcellulose) (HPC)): 105 % of control
T/C (dose: 120.0 mg/kg/injection, schedule: Q01DX005 (ip), vehicle: Klucel (hydroxypropylcellulose) (HPC)): 103 % of control
T/C (dose: 240.0 mg/kg/injection, schedule: Q01DX005 (ip), vehicle: Klucel (hydroxypropylcellulose) (HPC)): 103 % of control

O=C1[C@@H]2CCC[C@@H]2[C@H]2CCC[C@@H]12
T/C (dose: 100.0 mg/kg/injection, schedule: Q01DX001 (ip), vehicle: saline with Tween-80): 95 % of control
T/C (dose: 200.0 mg/kg/injection, schedule: Q01DX001 (ip), vehicle: saline with Tween-80): 102 % of control
T/C (dose: 400.0 mg/kg/injection, schedule: Q01DX001 (ip), vehicle: saline with Tween-80): 89 % of control

CCSC(CC(C)=O)c1ccccc1 (stereo not drawn)
T/C [15]: 108 % of control
T/C [16]: 116 % of control
T/C [17]: 105 % of control

Clc1nn2nnnc2c2ccccc12
T/C (dose: 5.0 mg/kg/injection, schedule: Q01DX009 (ip), vehicle: saline): 100 % of control and 96 % of control
T/C (dose: 10.0 mg/kg/injection, schedule: Q01DX009 (ip), vehicle: saline): 95 % of control and 97 % of control
T/C (dose: 20.0 mg/kg/injection, schedule: Q01DX009 (ip), vehicle: saline): 89 % of control and 94 % of control
T/C (dose: 40.0 mg/kg/injection, schedule: Q01DX009 (ip), vehicle: saline): 100 % of control and 91 % of control

CC(=O)[O][Hg][CH]1C2CC3C(C2OC(C)=O)C31 (stereo not drawn)
T/C (dose: 6.25 mg/kg/injection, schedule: Q01DX009 (ip), vehicle: saline with Tween-80): 105 % of control
T/C (dose: 12.5 mg/kg/injection, schedule: Q01DX009 (ip), vehicle: saline with Tween-80): 112 % of control

COC(=O)c1c(C)oc2ccccc2c1=O
T/C [18]: 101 % of control
T/C [19]: 103 % of control
T/C [20]: 103 % of control

C=CC(=NC(C)(C)C)Nc1ccc(Cl)cc1
T/C [15]: 100 % of control
T/C [16]: 94 % of control
T/C [17]: 97 % of control

CCCCC(=O)NN(Cn1c(=S)sc2ccccc21)Cn1c(=S)sc2ccccc21
T/C (dose: 1.56 mg/kg/injection, schedule: Q01DX009 (ip), vehicle: Klucel (hydroxypropylcellulose) (HPC)): 88 % of control
T/C (dose: 3.12 mg/kg/injection, schedule: Q01DX009 (ip), vehicle: Klucel (hydroxypropylcellulose) (HPC)): 106 % of control and 88 % of control
T/C [5]: 100 % of control and 86 % of control and 93 % of control
T/C [6]: 90 % of control and 97 % of control
T/C [2]: 88 % of control and 91 % of control

CCCNC(=O)c1ccccc1C(=O)NC1(C(=O)NCCC)CCCC1
T/C [9]: 97 % of control
T/C [10]: 96 % of control
T/C [11]: 96 % of control

Cc1cc(C2(c3cc(C)c(O)c(C)c3)c3ccccc3-c3ccccc32)cc(C)c1O
T/C [2]: 99 % of control
T/C [3]: 99 % of control
T/C [4]: 96 % of control

Oc1ccccc1-c1nc2c3ccccc3c3ccccc3c2[nH]1
T/C [9]: 113 % of control
T/C [10]: 111 % of control
T/C [11]: 113 % of control

OC1(c2ccccc2)c2ccccc2NC2=NCCN21 (stereo not drawn)
T/C (dose: 25.0 mg/kg/injection, schedule: Q01DX005 (ip), vehicle: saline with Tween-80): 105 % of control
T/C [9]: 96 % of control
T/C [10]: 104 % of control
T/C [11]: 97 % of control

COC1/C=C/OC2(C)Oc3c(C)c(O)c4c(c3C2=O)C(=O)c2cnc(nc2C4=O)/C(C)=C\C=C\C(C)C(O)C(C)C(O)C(C)C(OC(C)=O)C1C (stereo not drawn)
T/C (dose: 25.0 mg/kg/injection, schedule: Q01DX009 (ip), vehicle: other): 93 % of control
T/C (dose: 50.0 mg/kg/injection, schedule: Q01DX009 (ip), vehicle: other): 107 % of control
T/C (dose: 100.0 mg/kg/injection, schedule: Q01DX009 (ip), vehicle: other): 116 % of control

Cc1cc(=O)c(C#N)c(C)s1
T/C (dose: 100.0 mg/kg/injection, schedule: Q04DX002 (ip), vehicle: saline with Tween-80): 107 % of control
T/C (dose: 200.0 mg/kg/injection, schedule: Q04DX002 (ip), vehicle: saline with Tween-80): 100 % of control
T/C (dose: 400.0 mg/kg/injection, schedule: Q04DX002 (ip), vehicle: saline with Tween-80): 110 % of control

Cc1ccc(Cl)c2ccccc12
T/C [15]: 113 % of control
T/C [16]: 108 % of control

CCC1C(C#N)C(=O)NC(=O)C1C#N (stereo not drawn)
T/C [2]: 100 % of control
T/C [3]: 95 % of control
T/C [4]: 95 % of control

NNC(=O)CS(=O)(=O)Nc1ncccn1
T/C [18]: 100 % of control
T/C [19]: 100 % of control
T/C [20]: 100 % of control

O=C/C(=N/Nc1ccc([N+](=O)[O-])cc1)c1ccccc1
T/C (dose: 37.5 mg/kg/injection, schedule: Q01DX009 (ip), vehicle: saline with Tween-80): 94 % of control
T/C (dose: 75.0 mg/kg/injection, schedule: Q01DX009 (ip), vehicle: saline with Tween-80): 90 % of control
T/C (dose: 150.0 mg/kg/injection, schedule: Q01DX009 (ip), vehicle: saline with Tween-80): 86 % of control

O=c1c2ccccc2nnn1O
T/C (dose: 100.0 mg/kg/injection, schedule: Q04DX003 (ip), vehicle: Klucel (hydroxypropylcellulose) (HPC)): 108 % of control
T/C (dose: 200.0 mg/kg/injection, schedule: Q04DX003 (ip), vehicle: Klucel (hydroxypropylcellulose) (HPC)): 108 % of control

CC(C)(C)c1cc(=O)[nH]c(NC(N)=O)n1
T/C [15]: 96 % of control
T/C [16]: 90 % of control
T/C [17]: 96 % of control

O=C(O)c1cc(-c2ccc(-c3ccc(-c4cc(C(=O)O)c5cc(Cl)ccc5n4)cc3)cc2)nc2ccc(Cl)cc12
T/C [16]: 92 % of control
T/C [17]: 94 % of control
T/C (dose: 400.0 mg/kg/injection, schedule: Q01DX009 (ip), vehicle: saline with Tween-80): 109 % of control

CCOC(=O)Nc1ccc(C2SCCN2C(=O)NC)cc1 (stereo not drawn)
T/C (dose: 60.0 mg/kg/injection, schedule: Q01DX005 (ip), vehicle: saline with Tween-80): 109 % of control
T/C (dose: 120.0 mg/kg/injection, schedule: Q01DX005 (ip), vehicle: saline with Tween-80): 103 % of control
T/C (dose: 240.0 mg/kg/injection, schedule: Q01DX005 (ip), vehicle: saline with Tween-80): 100 % of control

c1ccc2c(OCC3CO3)c3ccccc3nc2c1 (stereo not drawn)
T/C [9]: 118 % of control
T/C [10]: 108 % of control
T/C [11]: 102 % of control

COc1cccc(/C=C/C(=O)c2ccc(Cl)cc2)c1OC
T/C [12]: 100 % of control
T/C [13]: 100 % of control
T/C [14]: 90 % of control

CCCCN=NN/C=C/C(C)(C)C
T/C [9]: 115 % of control

COCCOC
T/C [7]: 95 % of control
T/C [8]: 98 % of control
T/C (dose: 200.0 mg/kg/injection, schedule: Q01DX009 (ip), vehicle: saline): 100 % of control
T/C (dose: 400.0 mg/kg/injection, schedule: Q01DX009 (ip), vehicle: saline): 100 % of control

Nc1nc(=S)c2[nH]c(N=Nc3ccc(S(=O)(=O)O)cc3)nc2[nH]1
T/C (dose: 6.25 mg/kg/injection, schedule: Q04DX003 (ip), vehicle: saline): 123 % of control
